Measurements: patent US20140199327A1, “METHODS OF PROMOTING DIFFERENTIATION” (Genentech, Inc., priority 2011, published 2014)

Tested on: p21
Assay: p21 and p53 expression in U2-OS cells
Assay type: cell-based, human
Settings: etoposide treatment
Procedure: U2-OS, HOS, SJSA, SAOS, or MG-63 cells were grown to 10-25% confluence and transfected with the plasmids indicated in combination with the marker plasmid pMACS using FuGENE 6 (Sigma).
Transfected cells were sorted with MACS-select H-2K^k microbeads (Miltenyi Biotec). RNA was extracted from cultured or sorted transfected cells with Qiagen RNeasy Mini kits. Protein was extracted from sorted or cultured cells via lysis in NP-40 buffer (1% NP-40, 120 mM NaCl, 50 mM Tris, pH=7.4, 1 mM EDTA) supplemented with protease inhibitor cocktail I and phosphatase inhibitor cocktails 1 and 2 (Calbiochem). Lysates were clarified by centrifugation at 15,000×G for 10 minutes prior to analysis. Protein content was normalized by BCA protein assay (Thermo Scientific). For dual shRNA/siRNA experiments, cells were transfected with DNA expression vectors via Fugene and subsequently transfected with control siRNA (sense-5′-[…]-3′ (SEQ ID NO:20)) or siRNA targeting p21 (5′-[…]-3′ (SEQ ID NO:21)) via nucleofection with program X-001 in nucleofection solution V (Lonza). DT-40 cells were transfected by nucleofection with program B-023 in nucleofection solution T (Lonza).
Rat monoclonal antibodies were raised against the C-terminal 100 amino-acids of human USP1 or WDR48 to produce the monoclonal USP1 antibody 5E10 and WDR48 antibody 9F10. […]

With `COc1cc([C@@H]2c3cc4c(cc3[C@@H](O[C@@H]3O[C@@H]5CO[C@@H](C)O[C@H]5[C@H](O)[C@H]3O)[C@H]3COC(=O)[C@H]23)OCO4)cc(OC)c1O` [etoposide] the p21 induction was “induced”.
